{"source": "patent US20220408703A1", "about": "“IMAGING INDIVIDUAL HIPPOCAMPAL SEIZURES AND THE LONG-TERM IMPACT OF REPEATED SEIZURES” (The Board of Trustees of the Leland Stanford Junior …, priority 2019, published 2022)", "tested_on": "optogenetically induced ventral hippocampal seizures in rats", "settings": "same animals awake and under dexmedetomidine sedation", "source_text": "(A,B) Ventral hippocampal LFP recordings from the same animal and seizures induced when awake and under sedation. Red arrow indicates large amplitude spike onset, and insets i-iii) are magnified components of those seizures. Blue bar indicates time of optogenetic stimulation (40 Hz with 7.5 ms pulses) (C) Another set of electrophysiological recordings from a different animal in the awake and sedated state. […] Each line represents a single animal.\nThe afterdischarge threshold was first evaluated for each individual animal by gradually increasing stimulation intensity in a step-wise manner to drive electrographic seizures in the absence of behavioral seizures as assessed using the Racine scale. Starting with a 10 s train of 40 Hz stimulation with a pulse width of 7.5 ms at 1 mW, the power was increased 1 mW at a time with an interstimulus interval (ISI) of 1 min up to a maximum of 20 mW. If no afterdischarges were observed, the duration was increased by 2.5 s and power was reset to 1 mW.\nSimultaneous LFP-ofMRI Data Acquisition to assess ventral hippocampal connectivity. To assess ventral hippocampal connectivity, CAMKIIa cells in ventral hippocampus were stimulated at 10 Hz using optogenetic stimulation and assessed using simultaneous LFP-fMRI. Data acquisition was performed using the 7T horizontal-bore system (Bruker BioSpec 70/30) at the Stanford Center for Innovation in In-Vivo Imaging (SCi3). […] A single bolus of Feraheme (15 mg/kg, i.v.) was used for cerebral blood volume (CBV) weighted imaging for the enhanced contrast to noise ratio (Mandeville et al., 1998) and microvascular sensitivity (Zhao et al., 2006) that this technique offers in comparison to BOLD fMRI. fMRI acquisition was carried out approximately 15 min post contrast agent injection using a 4-shot segmented spiral readout with the following acquisition parameters: TR=0.75 ms, TE=9 ms, flip angle=30, field-of-view=32×32 mm, matrix=70×70, slice thickness=0.6 mm, number of slices=30, number of repetitions=130, number of dummy scans=4. […]", "data": [{"molecule": "Cc1cccc([C@H](C)c2cnc[nH]2)c1C", "note": "[dexmedetomidine]", "values": [{"measurement": "proportion of stimulations resulting in afterdischarges, awake vs sedated", "setting": "40 Hz, 7.5 ms pulses, FIG. 10D", "value": "No differences"}, {"measurement": "large amplitude spike onset, awake vs sedated", "setting": "FIG. 10E", "value": "No differences"}, {"measurement": "afterdischarge duration, sedated vs awake", "setting": "FIG. 10F", "value": "did not result in shorter afterdischarges"}]}]}
